Experimental data reported in patent publication US8754242B2, “Herbicides” (Syngenta Crop Protection LLC, priority 2007, dated 2014).

Key:
Type in all cases: in vivo
[1] = system: Echinochloa crus-galli (ECHCG); experiment: Test Example 1 pre-emergence herbicidal activity; details: rate 250 g/ha, evaluated 20 days later
How it was run: (§1)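 Plants sown in standard soil in pots; sprayed 1 day after sowing (pre-emergence) or after 10 days' glasshouse cultivation (post-emergence) with aqueous spray of compound formulated in acetone plus Emulsogen EL/N-methylpyrrolidone/dipropylene glycol monomethyl ether/X-77 solution. Damage scored 0–100 (100 = total damage) after 20 days (pre) or 15 days (post).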

Setaria faberi (SETFA) [2] = experiment: Test Example 1 pre-emergence herbicidal activity; details: rate 250 g/ha, evaluated 20 days later
How it was run: as §1

Avena fatua (AVEFA) [3] = experiment: Test Example 1 pre-emergence herbicidal activity; details: rate 250 g/ha, evaluated 20 days later
How it was run: as §1

Lolium perenne (LOLPE) [4] = experiment: Test Example 1 pre-emergence herbicidal activity; details: rate 250 g/ha, evaluated 20 days later
How it was run: as §1

[5] = system: Alopecurus myosuroides (ALOMY); experiment: Test Example 1 pre-emergence herbicidal activity; details: rate 250 g/ha, evaluated 20 days later
How it was run: as §1

[6] = system: Digitaria sanguinalis (DIGSA); experiment: Test Example 1 pre-emergence herbicidal activity; details: rate 250 g/ha, evaluated 20 days later
How it was run: as §1

winter barley 'Antoniya' = experiment: Test Example 2 post-emergence crop injury, alone and with cloquintocet-mexyl; details: Adigor 0.5%, 2-3 leaf seedlings, assessed 14-21 days after application
Description: (§2) Test compounds were applied post-emergence at 60 g ai/ha, alone and in combination with cloquintocet-mexyl at 60 g ai/ha; the adjuvant Adigor (0.5%) was included for every treatment. The application volume was […]. Target plants were 2-3 leaf seedlings of winter wheat ‘Hereward’ and winter barley ‘Antoniya’ grown in a greenhouse under ambient conditions. Assessments were made at 14-21 days after application.

winter wheat 'Hereward' = experiment: as above; details: Adigor 0.5%, 2-3 leaf seedlings, assessed 14-21 days after application
Description: as §2

[7] = system: Echinochloa crus-galli (ECHCG); experiment: Test Example 1 post-emergence herbicidal activity; details: rate 125 g/ha, evaluated 15 days later
How it was run: as §1

Setaria faberi (SETFA) [8] = experiment: Test Example 1 post-emergence herbicidal activity; details: rate 125 g/ha, evaluated 15 days later
How it was run: as §1

Avena fatua (AVEFA) [9] = experiment: Test Example 1 post-emergence herbicidal activity; details: rate 125 g/ha, evaluated 15 days later
How it was run: as §1

Lolium perenne (LOLPE) [10] = experiment: Test Example 1 post-emergence herbicidal activity; details: rate 125 g/ha, evaluated 15 days later
How it was run: as §1

[11] = system: Alopecurus myosuroides (ALOMY); experiment: Test Example 1 post-emergence herbicidal activity; details: rate 125 g/ha, evaluated 15 days later
How it was run: as §1

[12] = system: Digitaria sanguinalis (DIGSA); experiment: Test Example 1 post-emergence herbicidal activity; details: rate 125 g/ha, evaluated 15 days later
How it was run: as §1

wheat = experiment: Test Example 3 crop injury of T1 alone and with safeners; details: safener (if any) at 1:1, 2-3 leaf stage, assessed 14-21 days after application
Description: (§3) The test compound T1 was applied at 100 and 200 g ai/ha, alone and in combination with a range of safeners as 1:1 mixtures (for example at 100 g+100 g; 200 g+200 g) to the test plants—wheat and maize—at the 2-3 leaf stage. A 4-way safener mixture (cloquintocet-mexyl, benoxacor, fluxofenim and compound A*) was also applied with the test compound so that each safener was used a 1:1 ratio (for example at 100+100+100+100+100 g ai/ha). Assessments were made at 14-21 days after application.

maize = experiment: as above; details: safener (if any) at 1:1, 2-3 leaf stage, assessed 14-21 days after application
Description: as §3

[13] = compound 60 g/ha in combination with cloquintocet-mexyl 60 g/ha
[14] = compound 60 g/ha, cloquintocet-mexyl 0 g/ha

CCc1cc(C)cc(CC)c1C1=C(O)[C@H]2[C@@H](C1=O)[C@@H]1CC[C@H]2O1 [Example T1]
Pre-emergence activity ECHCG (100=total damage to plant; 0=no damage to plant) [1]: 100 | Pre-emergence activity SETFA (100=total damage to plant; 0=no damage to plant) (Setaria faberi (SETFA) [2]): 100 | Pre-emergence activity AVEFA (100=total damage to plant; 0=no damage to plant) (Avena fatua (AVEFA) [3]): 100 | Pre-emergence activity LOLPE (100=total damage to plant; 0=no damage to plant) (Lolium perenne (LOLPE) [4]): 100 | Pre-emergence activity ALOMY (100=total damage to plant; 0=no damage to plant) [5]: 100 | Pre-emergence activity DIGSA (100=total damage to plant; 0=no damage to plant) [6]: 100 | Crop Injury (%) Barley (winter barley 'Antoniya'; [13]): 73% | Crop Injury (%) Barley (winter barley 'Antoniya'; [14]): 99% | Crop Injury (%) Wheat (winter wheat 'Hereward'; [13]): 18% | Crop Injury (%) Wheat (winter wheat 'Hereward'; [14]): 85% | Post-emergence activity ECHCG (100=total damage to plant; 0=no damage to plant) [7]: 100 | Post-emergence activity SETFA (100=total damage to plant; 0=no damage to plant) (Setaria faberi (SETFA) [8]): 100 | Post-emergence activity AVEFA (100=total damage to plant; 0=no damage to plant) (Avena fatua (AVEFA) [9]): 90 | Post-emergence activity LOLPE (100=total damage to plant; 0=no damage to plant) (Lolium perenne (LOLPE) [10]): 80 | Post-emergence activity ALOMY (100=total damage to plant; 0=no damage to plant) [11]: 90 | Post-emergence activity DIGSA (100=total damage to plant; 0=no damage to plant) [12]: 100 | Wheat Injury (%) 100 g/ha (wheat; T1 at 100 g ai/ha): 83% | Wheat Injury (%) 200 g/ha (wheat; T1 at 200 g ai/ha): 92% | Maize Injury (%) 100 g/ha (maize; T1 at 100 g ai/ha): 90% | Maize Injury (%) 200 g/ha (maize; T1 at 200 g ai/ha): 100%
